Test results from US20260152794A1, “EFFICACY OF CHRONIC PELVIC PAIN TREATMENT” (THE UNIVERSITY COURT OF THE UNIVERSITY OF EDINBURGH, priority 2022, published 2026).

Legend:
[1] = tested on: women with chronic pelvic pain; conditions: embedded mechanistic study of GaPP2 (reference 8); cited from earlier work
[2] = tested on: women with chronic pelvic pain; assay: Mechanistic fMRI study: brain response to abdominal punctate stimuli before and after 12 weeks of treatment; assay type: in vivo, human; conditions: rs4442490 TT responders (n = 2) compared with TG/GG non-responders (n = 5); brain regions of Table 4
Text: Within the sample taking part in the gabapentin RCT, a small number also took part in a mechanistic fMRI study, undergoing MRI brain scans before and after 12 weeks of treatment. […] Punctate task fMRI pre-processing is described in the supplementary materials. For those for whom both genetic and imaging data was available, the gabapentin pre- and post-treatment scans were compared. The first-level contrast of post-treatment>pre-treatment punctate vs rest was taken into a random effects analysis comparing SNP variants, with clusters achieving a whole-brain, FWE-corrected significance of p<0.05 being reported.

[3] = tested on: women with chronic pelvic pain; assay: GaPP2 trial secondary analysis: gabapentin intolerance (side-effect burden); assay type: in vivo, human; conditions: side-effects reported during the study period; genotyped participants
Text: (§1) This study is a planned secondary analysis of the GaPP2 trial, a UK-based multicentre, randomised, placebo-controlled trial of gabapentin versus placebo in women with chronic pelvic pain. Trial protocol including ethical approval and exclusion and inclusion criteria are published in full elsewhere. (17) All participants were women aged 18-50 years of age, were using or willing to use contraception to avoid pregnancy and had no obvious pelvic pathology at laparoscopy which must have taken place at least 2 weeks and less than 36 months prior to consent. Participants were randomly assigned to gabapentin (titrated to maximum dose 2700 mg daily) or placebo for 16 weeks. At inclusion to the trial, participants were asked to provide a saliva sample for inclusion in this study.
Cases were categorised into two phenotypes assessing the analgesic response to gabapentin and the degree of intolerance (side-effect burden). Gabapentin analgesic response was defined categorically using the coprimary outcomes of the GaPP2 trial: worst and average pain. Gabapentin ‘responders’ were defined as having reported a ≥30% reduction in worst and/or average pain scores on a numerical rating scale (1-10) after 12 weeks of gabapentin exposure. Gabapentin intolerance was also categorised categorically using a cut-off of ≥3 side-effects reported during the study period. […]

[4] = tested on: women with chronic pelvic pain; conditions: GaPP2 trial, women with CPP (reference 7); cited from earlier work
[5] = tested on: women with chronic pelvic pain; assay: GaPP2 trial secondary analysis: gabapentin analgesic (pain) response, worst and average pain on numerical rating scale; assay type: in vivo, human; conditions: for Average pain (NRS), End of study: mean; for Average pain (NRS), End of study / Worst pain (NRS), End of study: numerical rating scale 1-10; for Worst pain (NRS), End of study: median
Text: as §1
Cases were categorised into two phenotypes assessing the analgesic response to gabapentin and the degree of intolerance (side-effect burden). Gabapentin analgesic response was defined categorically using the coprimary outcomes of the GaPP2 trial: worst and average pain. Gabapentin ‘responders’ were defined as having reported a ≥30% reduction in worst and/or average pain scores on a numerical rating scale (1-10) after 12 weeks of gabapentin exposure. Gabapentin intolerance was also categorised categorically using a cut-off of ≥3 side-effects reported during the study period. Cases were categorised into ≥3 side-effects and <3 side-effects.

[6] = tested on: women with chronic pelvic pain; conditions: GaPP2 trial, women with CPP (reference 7); cited from earlier work; remark: listed apart in the source
[7] = Pain non-responder group (n = 46)
[8] = after 12 weeks of gabapentin exposure, genotyped participants

With `NCC1(CC(=O)O)CCCCC1` [gabapentin] as the compound, how does the “effect on brain region in response to abdominal punctate stimuli (functional MRI)” value [1] read?
Its value is “appeared to exert an effect on the anterior cingulate cortex”.

What about the “fMRI punctate activation after treatment versus before” value [2] of the same compound?
The value was “decrease in punctate activation”.

What about the “number of participants with <3 side-effects” value [3] of the same compound?
Its value is <3 side-effects (n = 23).

And the “number of participants with ≥3 side-effects” value [3]?
The value was ≥3 side-effects (n = 53).

What about the “improvement of worst or average pain scores versus placebo” value [4] of the same compound?
The value was “not superior to placebo”.

What about the “Average pain (NRS), End of study” value [5, 7] of the same compound?
Its value is 5.8.

What about the “Worst pain (NRS), End of study” value [5, 7] of the same compound?
Its value is 9.

What about the “Average pain (NRS), End of study” value ([5]; Pain responder group (n = 31), gabapentin titrated to maximum 2700 mg daily) of the same compound?
Its value is 2.5.

And the “Worst pain (NRS), End of study” value ([5]; Pain responder group (n = 31))?
The value was 6.

What about the “number of pain non-responders” value [5, 8] of the same compound?
Its value is “(n = 46)”.

What about the “number of pain responders (≥30% reduction in worst and/or average pain scores)” value [5, 8] of the same compound?
Its value is “(n = 31)”.

What about the “average reduction in average pain” value ([5]; subjects in the gabapentin pain responder group) of the same compound?
Its value is 47%.

And the side-effects versus placebo [6]?
The side-effects versus placebo was “associated with more side-effects”.
